Earlier results on 2 molecules are cited in PMC4506092, “Utilizing Chemical Genomics to Identify Cytochrome b as a Novel Drug Target for Chagas Disease” (PLoS Pathogens, 2015).

The data set has as its system T. cruzi infection. To be noted: cited from earlier work; for Parasitological cure rates: Chagas disease patients, clinical testing.

As to `C[C@@H](c1nc(-c2ccc(C#N)cc2)cs1)[C@@](Cn1cncn1)(OCOP(=O)(O)O)c1ccc(F)cc1F` [Compound E1224], the Parasitological cure rates is recorded as 20–30%. Moreover, the “Patients with failure to cure infection” value (treated Chagas patients) is ~ 70%.
As to `CC[C@@H]([C@H](C)O)n1ncn(-c2ccc(N3CCN(c4ccc(OC[C@@H]5CO[C@@](Cn6cncn6)(c6ccc(F)cc6F)C5)cc4)CC3)cc2)c1=O` [posaconazole], the Parasitological cure rates is listed as 20–30%. The “Patients with recrudescence of infection” value (Chagas patients, 60-day treatment, determined by PCR) was 81%.
